Assay results published in patent publication US20240026314A1, “POLYPEPTIDES FOR USE IN THE SYNTHESIS OF BIOACTIVE PHENOLIC COMPOUNDS” (priority 2020, published 2024).
Read-outs that look alike come from different tables or passages of the source. One block for each molecule: values may come before it.

Legend:
[1] = test system: sarcoma S-180; details: cited from earlier work
[2] = test system: colon cancer cell line SW480; details: cited from earlier work
[3] = test system: human leukemia cell line HL60; details: cited from earlier work
[4] = test system: CsOMT1; experiment: O-methyltransferase enzyme assay with recombinant CsOMT1; format: biochemical, Cannabis sativa; details: compound as substrate, 1 mM, [14C]-SAM methyl donor, relative to dihydroresveratrol
[5] = test system: CsOMT21; experiment: O-methyltransferase enzyme assay with recombinant CsOMT21; format: biochemical, Cannabis sativa; details: 1 mM substrate, [14C]-SAM, 30 min at 37° C.
[6] = test system: CsOMT6; experiment: O-methyltransferase enzyme assay with recombinant CsOMT6; format: biochemical, Cannabis sativa; details: 1 mM substrate, [14C]-SAM, 30 min at 37° C.
[7] = substrate: Oc1ccc(CCc2cc(O)cc(O)c2)cc1; experiment: Enzyme kinetics (Michaelis-Menten) of recombinant CsOMT1 O-methyltransferase with dihydroresveratrol as substrate (FIG. 6C); format: biochemical, Cannabis sativa; details: other: substrate dihydroresveratrol, standard assay conditions (50 mM Tris-HCl, pH 7.5, 5 mM MgCl2, 10% glycerol, 37° C, [14C]-SAM methyl donor), non-linear regression, Michaelis-M
Protocol: FIG. 6. Enzymatic methylation activity of CsOMT1. (A) Reaction catalyzed by CsOMT1. (B) Representative chromatogram showing the reaction products resolved by HPLC that illustrates the separation of the methylated dihydroresveratrol from its corresponding substrate (dihydroresveratrol, DHR). The identity of 3-O-methyl-dihydroresveratrol (pinobistilbene) was structurally determined by NMR. (C) Kinetic analysis of CsOMT1. Recombinant CsOMT1 was assayed under standard assay conditions at the indicated concentrations of dihydroresveratrol. Kinetic parameters were determined by non-linear regression analysis using the Michaelis-Menten kinetics model of the SigmaPlot 12.3 software.
Expression of recombinant prenyltransferases in E. coli. In typical aspects, open reading frames encoding soluble aromatic prenyltransferases from bacteria or fungi, for example NphB, HypSC, CloQ, NovQ, Fur7, or PpzP are synthesized commercially. […]
Recombinant protein expression of CsOMTs in E. coli. Open reading frames corresponding to O-methyltransferases from C. sativa are synthesized by commercially. […]
O-methyltransferase enzyme assays. […] The enzymatic products are extracted with four volumes of ethyl acetate and quantified using a scintillation counter. […] The eluted products are detected by absorption at the 210-350 nm range and quantified relative to authentic standards. […]

Molecule: CC(C)=CCc1cc(/C=C/C(=O)O)cc(CC=C(C)C)c1O [artepillin C]
tumor growth ([1]; mouse, in vivo, po): significant reduction in tumor growth
apoptotic events [2]: induce apoptotic events
apoptotic events [3]: induce apoptotic events

O-methyltransferase activity relative to that with DHR [4]: about 25%
Molecule: COc1cc(O)cc(CCc2cccc(O)c2)c1 [batatasin III]

Molecule: CC(C)=CCc1cc(/C=C/C(=O)O)ccc1O [drupanin]
tumor growth ([1]; oral administration, mice with sarcoma S-180 (Mishima et al 2005)): significant reduction in tumor growth
apoptotic events ([2]; SW480 (Akao et al 2008)): induce apoptotic events
apoptotic events ([3]; HL60 (Akao et al 2008)): induce apoptotic events

Molecule: O=c1cc(-c2ccc(O)c(O)c2)oc2cc(O)cc(O)c12 [luteolin]
methylation of substrate [5]: able to methylate

Molecule: O=c1c(O)c(-c2ccc(O)c(O)c2)oc2cc(O)cc(O)c12 [quercetin]
methylation of substrate [6]: preferred methylation
methylation of substrate [5]: able to methylate

B1: CsOMT1 (recombinant O-methyltransferase, SEQ ID NO: 7, PK03555; 6×His-tagged, expressed in E. coli) (Cannabis sativa) (protein)
chain: MEADGEDAVLRGQVEIWKYMLSFADSMALKCAVELQLADIIHSHTSPITLSQIASAIPGATSPDLSCLARIMRLLVRRRIFTQHQKPKSDGEEEEALYGPTHSSRWLLTKTNDHDQLTLAPMILMENDPRLMAPWHCFSRCVKEGGVAFKKAHNGQSIWEFGAENPEINKLFNDAMECTAKVVMKAILSHYSDGGFSDIKSMVDVGGGTGGSISEIVRSYPHIKGINFDLPHVIATAPPYSGVSHVGGDMFRSVPTADAIFMKWILHDWSDEDCVKILKNCRKAIAEESGKVIIVESVLEEESNNNNNNNEVFGDTALMLDLVMVAHTTGGKERTQKQWKTILEQGGFPRYNFIKIKALPSIIEAYPN
Km [7]: 22.2 ± 4.6 µM
